For this experiment, the target named is PI3K (p110α/p85α) (Homo sapiens (Human), UniProt P42336). Kind of experiment: PI3K Activity Assay (ADP Hunter Plus). The experiment is classed as biochemical. As to the method: The kinase activity was measured by using the commercial ADP Hunter™ Plus assay available from DiscoveRx (#33-016), which is a homogeneous assay to measure the accumulation of ADP, a universal product of kinase activity. The enzyme, PI3K (p110α/p85α was purchased from Carna Biosciences (#07CBS-0402A). The assay was done following the manufacturer recommendations with slight modifications: Mainly the kinase buffer was replace by 50 mM HEPES, pH 7.5, 3 mM MgCl2, 100 mM NaCl, 1 mM EGTA, 0.04% CHAPS, 2 mM TCEP and 0.01 mg/ml BGG. The PI3K was assayed in a titration experiment to determine the optimal protein concentration for the inhibition assay. To calculate the IC50 of the ETP-compounds, serial 1:5 dilutions of the compounds were added to the enzyme at a fixed concentration (2.5 μg/mL. The enzyme was preincubated with the inhibitor and 30 μM PIP2 substrate (P9763, Sigma) for 5 min and then ATP was added to a final 50 μM concentration. Reaction was carried out for 1 hour at 25° C. Reagent A and B were sequentially added to the wells and plates were incubated for 30 min at 37° C. Fluorescence counts were read in a Victor instrument (Perkin Elmer) with the recommended settings (544 and 580 nm as excitation and emission wavelengths, respectively). Values were normalized against the control activity included for each enzyme (i.e., 100% PI3 kinase activity, without compound). These values were plot against the inhibitor concentration and were fit to a sigmoid dose-response curve by using the Graphad software.
Chain of PI3K (p110α/p85α) (P42336 whole entry): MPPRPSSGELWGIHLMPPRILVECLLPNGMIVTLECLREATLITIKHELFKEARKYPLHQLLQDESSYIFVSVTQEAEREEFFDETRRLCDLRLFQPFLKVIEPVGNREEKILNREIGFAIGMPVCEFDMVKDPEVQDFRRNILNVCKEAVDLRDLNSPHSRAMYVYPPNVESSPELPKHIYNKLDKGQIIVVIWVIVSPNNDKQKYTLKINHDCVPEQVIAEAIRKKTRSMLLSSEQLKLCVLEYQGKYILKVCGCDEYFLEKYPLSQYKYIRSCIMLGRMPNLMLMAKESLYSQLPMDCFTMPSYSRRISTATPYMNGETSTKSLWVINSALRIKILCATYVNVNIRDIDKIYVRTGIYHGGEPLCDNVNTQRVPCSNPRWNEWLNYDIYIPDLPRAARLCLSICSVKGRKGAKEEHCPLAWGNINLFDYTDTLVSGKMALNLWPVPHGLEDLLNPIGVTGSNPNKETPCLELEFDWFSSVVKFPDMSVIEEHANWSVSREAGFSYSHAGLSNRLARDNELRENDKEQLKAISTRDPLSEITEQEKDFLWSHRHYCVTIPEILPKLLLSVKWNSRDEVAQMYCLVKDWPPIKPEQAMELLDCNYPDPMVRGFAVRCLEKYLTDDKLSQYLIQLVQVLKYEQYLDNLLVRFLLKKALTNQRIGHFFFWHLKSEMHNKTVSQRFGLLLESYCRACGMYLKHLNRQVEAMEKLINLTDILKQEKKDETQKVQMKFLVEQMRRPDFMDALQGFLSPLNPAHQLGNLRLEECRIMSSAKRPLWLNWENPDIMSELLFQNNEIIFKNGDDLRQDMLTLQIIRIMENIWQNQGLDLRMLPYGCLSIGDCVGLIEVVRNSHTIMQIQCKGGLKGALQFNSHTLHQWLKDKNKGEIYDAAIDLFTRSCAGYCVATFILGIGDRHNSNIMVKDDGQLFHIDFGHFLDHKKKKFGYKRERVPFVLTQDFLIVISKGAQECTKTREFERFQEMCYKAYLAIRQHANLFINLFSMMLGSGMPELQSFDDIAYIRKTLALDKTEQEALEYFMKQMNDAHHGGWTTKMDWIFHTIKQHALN
Chain of PI3K (p110α/p85α) (P27986 whole entry partner): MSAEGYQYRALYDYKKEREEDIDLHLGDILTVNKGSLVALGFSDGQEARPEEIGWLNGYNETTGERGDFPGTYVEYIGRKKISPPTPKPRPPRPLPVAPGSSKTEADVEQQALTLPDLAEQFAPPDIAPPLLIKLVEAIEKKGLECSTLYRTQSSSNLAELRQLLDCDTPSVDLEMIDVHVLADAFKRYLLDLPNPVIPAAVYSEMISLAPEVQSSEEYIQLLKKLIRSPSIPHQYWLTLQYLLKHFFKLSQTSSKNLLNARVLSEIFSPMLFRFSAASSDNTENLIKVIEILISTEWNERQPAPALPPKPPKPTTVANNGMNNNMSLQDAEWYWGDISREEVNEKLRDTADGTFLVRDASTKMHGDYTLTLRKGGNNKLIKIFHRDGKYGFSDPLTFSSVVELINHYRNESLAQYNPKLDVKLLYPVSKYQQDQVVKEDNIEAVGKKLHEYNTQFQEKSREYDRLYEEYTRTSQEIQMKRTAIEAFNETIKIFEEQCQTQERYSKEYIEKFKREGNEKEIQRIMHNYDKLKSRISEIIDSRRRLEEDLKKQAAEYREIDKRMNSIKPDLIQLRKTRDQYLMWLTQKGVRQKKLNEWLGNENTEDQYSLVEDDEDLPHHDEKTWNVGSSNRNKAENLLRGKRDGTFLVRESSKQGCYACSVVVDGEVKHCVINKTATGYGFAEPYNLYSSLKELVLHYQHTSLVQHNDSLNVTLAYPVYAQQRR

[1] abbreviates: read-out: Biological activity in PI3Kα, semi-quantitative.

The values below come from US8815918B2, “Imidazo [2, 1-B] [1, 3, 4] thiadiazole derivatives” (Centro Nacional de Investigaciones Oncologicas (CNIO), priority 2009, dated 2014).

Where two headings read alike, the source gives them in different places.

Regarding `N#Cc1cccc(-c2nn3c(-c4cnc(N)c(C(F)(F)F)c4)cnc3s2)c1` [Example 29, 3-[5-(6-Amino-5-trifluoromethyl-pyridin-3-yl)-imidazo[2,1-b][1,3,4]thiadiazol-2-yl]-benzonitrile], the IC50 under setting [1] is < 0.1 µM. As to `COc1ccc(-c2nn3c(-c4cnc(N)c(C(F)(F)F)c4)cnc3s2)cc1` [Example 30, 5-[2-(4-Methoxy-phenyl)-imidazo[2,1-b][1,3,4]thiadiazol-5-yl]-3-trifluoromethyl-pyridin-2-ylamine], the IC50 was 0.1 to 1 µM under setting [1] and 0.454 µM (read-out: IC50 [μM] PI3Kα). As for `CS(=O)(=O)Nc1cccc(-c2nn3c(-c4cnc(N)c(C(F)(F)F)c4)cnc3s2)c1` [Example 31, N-{3-[5-(6-Amino-5-trifluoromethyl-pyridin-3-yl)-imidazo[2,1-b][1,3,4]thiadiazol-2-yl]-phenyl}-methanesulfonamide], the IC50 under setting [1] is < 0.1 µM. `Nc1ncc(-c2cnc3sc(-c4cccnc4)nn23)cc1C(F)(F)F` [Example 32, 5-(2-Pyridin-3-yl-imidazo[2,1-b][1,3,4]thiadiazol-5-yl)-3-trifluoromethyl-pyridin-2-ylamine]: the IC50 under setting [1] is < 0.1 µM.

With `N#Cc1ccc(-c2nn3c(-c4cnc(N)c(C(F)(F)F)c4)cnc3s2)cc1` [Example 33, 4-[5-(6-Amino-5-trifluoromethyl-pyridin-3-yl)-imidazo[2,1-b][1,3,4]thiadiazol-2-yl]-benzonitrile], under setting [1], the IC50 lay within 0.1 to 1 µM.

For `CS(=O)(=O)NCc1cccc(-c2nn3c(-c4cnc(N)c(C(F)(F)F)c4)cnc3s2)c1` [Example 34, N-{3-[5-(6-Amino-5-trifluoromethyl-pyridin-3-yl)-imidazo[2,1-b][1,3,4]thiadiazol-2-yl]-benzyl}-methanesulfonamide], the IC50 under setting [1] was < 0.1 µM. On to `NC(=O)c1cccc(-c2nn3c(-c4cnc(N)c(C(F)(F)F)c4)cnc3s2)c1` [Example 35, 3-[5-(6-Amino-5-trifluoromethyl-pyridin-3-yl)-imidazo[2,1-b][1,3,4]thiadiazol-2-yl]-benzamide], for which the IC50 under setting [1] is < 0.1 µM. Regarding `CCn1cc(-c2nn3c(-c4cnc(N)c(C(F)(F)F)c4)cnc3s2)cn1` [Example 36, 5-[2-(1-Ethyl-1H-pyrazol-4-yl)-imidazo[2,1-b][1,3,4]thiadiazol-5-yl]-3-trifluoromethyl-pyridin-2-ylamine], the IC50 was < 0.1 µM under setting [1] and 0.095 µM (read-out: IC50 [μM] PI3Kα).

For the compound `Cc1ccncc1-c1nn2c(-c3cnc(N)c(C(F)(F)F)c3)cnc2s1` [Example 37, 5-[2-(4-Methyl-pyridin-3-yl)-imidazo[2,1-b][1,3,4]thiadiazol-5-yl]-3-trifluoromethyl-pyridin-2-ylamine], the IC50 under setting [1] was < 0.1 µM. As to `CC(C)(C)OC(=O)N1CCC2(CC1)C(=O)Nc1ccc(-c3nn4c(-c5cnc(N)c(C(F)(F)F)c5)cnc4s3)cc12` [Example 38, 5-[2-(1′-(tert-butoxycarbonyl)-2-oxo-1,2-dihydrospiro[indole-3,4′-piperidine]-5-yl)-imidazo[2,1-b][1,3,4]thiadiazol-5-yl]-3-trifluoromethyl-pyridin-2-ylamine], the IC50 under setting [1] was in the range of 1 to 50 µM. As to `Nc1ncc(-c2cnc3sc(-c4ccc5c(c4)C4(CCNCC4)C(=O)N5)nn23)cc1C(F)(F)F` [Example 39, 5-[2-(2-oxo-1,2-dihydrospiro[indole-3,4′-piperidine]-5-yl)-imidazo[2,1-b][1,3,4]thiadiazol-5-yl]-3-trifluoromethyl-pyridin-2-ylamine], the IC50 under setting [1] is < 0.1 µM. In the case of `Nc1ncc(-c2cnc3sc(-c4ccc5[nH]ccc5c4)nn23)cc1C(F)(F)F` [Example 40, 5-[2-(1H-Indol-5-yl)-imidazo[2,1-b][1,3,4]thiadiazol-5-yl]-3-trifluoromethyl-pyridin-2-ylamine], the IC50 was 0.1 to 1 µM under setting [1] and 0.676 µM (read-out: IC50 [μM] PI3Kα).

Take `CS(=O)(=O)c1cccc(-c2nn3c(-c4cnc(N)c(C(F)(F)F)c4)cnc3s2)c1` [Example 41, 5-[2-(3-Methanesulfonyl-phenyl)-imidazo[2,1-b][1,3,4]thiadiazol-5-yl]-3-trifluoromethyl-pyridin-2-ylamine]: the IC50 under setting [1] was < 0.1 µM and the IC50 (read-out: IC50 [μM] PI3Kα) is 0.05 µM. `CN(C)c1cccc(-c2nn3c(-c4cnc(N)c(C(F)(F)F)c4)cnc3s2)c1` [Example 42, 5-[2-(3-Dimethylamino-phenyl)-imidazo[2,1-b][1,3,4]thiadiazol-5-yl]-3-trifluoromethyl-pyridin-2-ylamine]: the IC50 under setting [1] was 0.1 to 1 µM.

For `Cc1ccc(-c2nn3c(-c4cnc(N)c(C(F)(F)F)c4)cnc3s2)cn1` [Example 43, 5-[2-(6-Methyl-pyridin-3-yl)-imidazo[2,1-b][1,3,4]thiadiazol-5-yl]-3-trifluoromethyl-pyridin-2-ylamine], the IC50 reads like this: under setting [1], < 0.1 µM; (read-out: IC50 [μM] PI3Kα) 0.062 µM. On to `Nc1ncc(-c2cnc3sc(-c4ccc(S(=O)(=O)N5CCOCC5)cc4)nn23)cc1C(F)(F)F` [Example 44, 5-{2-[4-(Morpholine-4-sulfonyl)-phenyl]-imidazo[2,1-b][1,3,4]thiadiazol-5-yl}-3-trifluoromethyl-pyridin-2-ylamine], for which, under setting [1], the IC50 was in the range of 0.1 to 1 µM. In the case of `Nc1ncc(-c2cnc3sc(-c4cccc(S(=O)(=O)N5CCOCC5)c4)nn23)cc1C(F)(F)F` [Example 45, 5-{2-[3-(Morpholine-4-sulfonyl)-phenyl]-imidazo[2,1-b][1,3,4]thiadiazol-5-yl}-3-trifluoromethyl-pyridin-2-ylamine], the IC50 under setting [1] was in the range of 0.1 to 1 µM and the IC50 (read-out: IC50 [μM] PI3Kα) amounted to 0.437 µM. Turning to `CC(=O)Nc1cccc(-c2nn3c(-c4cnc(N)c(C(F)(F)F)c4)cnc3s2)c1` [Example 46, N-{3-[5-(6-Amino-5-trifluoromethyl-pyridin-3-yl)-imidazo[2,1-b][1,3,4]thiadiazol-2-yl]-phenyl}-acetamide], under setting [1], the IC50 was < 0.1 µM. Take `COc1cncc(-c2nn3c(-c4cnc(N)c(C(F)(F)F)c4)cnc3s2)c1` [Example 47, 5-[2-(5-Methoxy-pyridin-3-yl)-imidazo[2,1-b][1,3,4]thiadiazol-5-yl]-3-trifluoromethyl-pyridin-2-ylamine]: the IC50 is < 0.1 µM under setting [1] and 0.021 µM (read-out: IC50 [μM] PI3Kα). For the compound `CS(=O)(=O)c1ccc(-c2cnc3sc(-c4cnc(N)c(C(F)(F)F)c4)nn23)cc1` [Example 49, 5-[5-(4-Methanesulfonyl-phenyl)-imidazo[2,1-b][1,3,4]thiadiazol-2-yl]-3-trifluoromethyl-pyridin-2-ylamine], the IC50 under setting [1] is < 0.1 µM. The term inhibition denotes how much of the control response was suppressed. On to `Nc1ncc(-c2nn3c(-c4ccc(F)nc4)cnc3s2)cc1C(F)(F)F` [Example 50, 5-[5-(6-Fluoro-pyridin-3-yl)-imidazo[2,1-b][1,3,4]thiadiazol-2-yl]-3-trifluoromethyl-pyridin-2-ylamine], for which, where the note is “10 μM compound concentration, read-out: Inhibition (%) of PI3Kα activity, Inh (%) at 10 μM”, the inhibition at 10 µM is 97%. Further, the IC50 under setting [1] fell in the range of 0.1 to 1 µM. As to `COC(=O)c1ccc(-c2cnc3sc(-c4cnc(N)c(C(F)(F)F)c4)nn23)cc1OC` [Example 51, 4-[2-(6-Amino-5-trifluoromethyl-pyridin-3-yl)-imidazo[2,1-b][1,3,4]thiadiazol-5-yl]-2-methoxy-benzoic acid methyl ester], the IC50 is, setting by setting: under setting [1], < 0.1 µM; (read-out: IC50 [μM] PI3Kα) 0.018 µM.
